This data set can be described thus: Intravenous administration of nicotine in rats (plasma nicotine, pharmacokinetics). Type of data set: in vivo, rat (male Lewis rats, Lew/Mol). The note with it: rat, 0.15 mg/kg BW. An excerpt:
The plasma values obtained after i.v. administration of nicotine were just like those obtained by intranasal administration analysed for the number of phases.
One phase was recognized corresponding to only one elimination phase.
The model was fitted to the data using weighted least squares algoritm with the weighing factor=1.
The plasma nicotine values as a function of time after i.v. administration of nicotine are shown in the below Table 3 and FIG. 2. Six animals were used in the study. The pharmacokinetic parameters are calculated as described for the data obtained by intranasal administration.

Where two headings read alike, the source gives them in different places.

Take `CN1CCCC1c1cccnc1` (stereo not drawn) [nicotine]: the concentration at […] (15 minutes after i.v. adm., read-out: Plasma nicotine values, average for 6 rats) came to 47 ng/mL; the concentration at […] (75 minutes after i.v. adm., read-out: Plasma nicotine values, average for 6 rats) worked out at 51 ng/mL; the concentration at […] (90 minutes after i.v. adm., read-out: Plasma nicotine values, average for 6 rats) was 38 ng/mL; the concentration at […] (150 minutes after i.v. adm., read-out: Plasma nicotine values, average for 6 rats) came out at 36 ng/mL. The concentration at 0.5 h (30 minutes after i.v. adm., read-out: Plasma nicotine values, average for 6 rats) is 61 ng/mL. Further, for the setting “45 minutes after i.v. adm., read-out: Plasma nicotine values, average for 6 rats”, the concentration at 0.75 h came to 86 ng/mL. For the same compound, under “60 minutes after i.v. adm., read-out: Plasma nicotine values, average for 6 rats”, the concentration at 1 h was found to be 50 ng/mL. Moreover, for the setting “105 minutes after i.v. adm., read-out: Plasma nicotine values, average for 6 rats”, the concentration at 1.75 h amounted to 38 ng/mL. Besides, for the setting “120 minutes after i.v. adm., read-out: Plasma nicotine values, average for 6 rats”, the concentration at 2 h amounted to 59 ng/mL. In addition, the concentration at 3 h (180 minutes after i.v. adm., read-out: Plasma nicotine values, average for 6 rats) turned out to be 22 ng/mL. Moreover, the concentration at 3.5 h (210 minutes after i.v. adm., read-out: Plasma nicotine values, average for 6 rats) worked out at 25 ng/mL. The concentration at 4 h (240 minutes after i.v. adm., read-out: Plasma nicotine values, average for 6 rats) was 20 ng/mL. In addition, the half-life (i.v., SIPHAR, read-out: Half-life (Ke line)) came out at 156 min. Besides, under “i.v., SIPHAR, read-out: Ke, parameter value (converted)”, the k el was 7.33e-05 s⁻¹. Also, the AUC(0-inf) (i.v., trapezoidal rule, read-out: AUC0-.infin. (converted)) is 262 ng·h/mL.

The values are drawn from patent publication US5939100A, “Composition for drug delivery comprising nicotine or a derivative thereof and starch microspheres and method for the manufacturing thereof” (Pharmacia and UpJohn AB, priority 1993, dated 1999).
